{
  "source": "patent US20240246920A1",
  "about": "“TRIAZOLE DERIVATIVES WITH ANTIFUNGAL ACTIVITY” (King's College London, priority 2020, published 2024)",
  "key": {"C. albicans NCPF3281": {"system": "C. albicans NCPF3281", "assay": "Candida panel MIC, serial dilution in 96-well plates", "type": "cell-based, Candida albicans", "outline": "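Broth microdilution in RPMI 1640/MOPS/2% glucose, pH 7.0, compound serially diluted from 128 to 0.25 μg/mL. Inoculum 0.5-5×10^5/mL from overnight 37 °C cultures; plates incubated 24 h at 37 °C. Growth read at OD530; MIC is lowest concentration giving ≥50% inhibition versus drug-free growth control.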"}, "C. krusei NCPF3876": {"system": "C. krusei NCPF3876", "assay": "microbe, parasite or virus in culture", "type": "cell-based, Candida krusei", "conditions": "Pichia kudriavzevii", "outline": "(§1)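 MIC taken as lowest concentration inhibiting growth ≥50% relative to drug-free control, from OD530 after 24 hours at 37° C. Fungi at 0.5-5×10^5/mL were exposed to serially diluted compound in RPMI 1640/MOPS/2% glucose medium adjusted to pH 7.0.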"}, "C. parapsilosis NCPF3209": {"system": "C. parapsilosis NCPF3209", "assay": "microbe, parasite or virus in culture", "type": "cell-based, Candida parapsilosis", "conditions": "Lodderomyces parapsilosis", "outline": "as §1"}, "Candida auris TDG2211": {"system": "Candida auris TDG2211", "assay": "microbe, parasite or virus in culture", "type": "cell-based", "conditions": "Candidozyma auris", "outline": "(§2)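 MIC is the lowest concentration inhibiting growth by ≥50% relative to the drug-free control, read at OD530 nm after 24 hours at 37° C. Fungi were seeded at 0.5-5×10^5/mL in MOPS-buffered RPMI 1640 with 2% glucose, pH 7.0; compounds came from DMSO solutions diluted in media.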"}, "Candida auris TDG2506": {"system": "Candida auris TDG2506", "assay": "microbe, parasite or virus in culture", "type": "cell-based", "conditions": "Candidozyma auris", "outline": "as §2"}, "C. albicans 3363": {"system": "C. albicans 3363", "assay": "Candida albicans panel MIC", "type": "cell-based", "conditions": "Table 6, Candida albicans panel", "outline": "(§3)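 MIC = lowest conc. with ≥50% inhibition vs drug-free fungus control, OD530 read. Serial dilution 128–0.25 μg/mL in RPMI/MOPS/2% glucose pH 7.0; 0.5-5×10^5 cells/mL; 37° C, 24 h.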"}, "C. albicans 3645": {"system": "C. albicans 3645", "assay": "Candida albicans panel MIC", "type": "cell-based", "conditions": "Table 6, Candida albicans panel", "outline": "as §3"}, "C. albicans 3880": {"system": "C. albicans 3880", "assay": "Candida albicans panel MIC", "type": "cell-based", "conditions": "Table 6, Candida albicans panel", "outline": "as §3"}, "C. albicans 3881": {"system": "C. albicans 3881", "assay": "Candida albicans panel MIC", "type": "cell-based", "conditions": "Table 6, Candida albicans panel", "outline": "as §3"}, "C. albicans 3882": {"system": "C. albicans 3882", "assay": "Candida albicans panel MIC", "type": "cell-based", "conditions": "Table 6, Candida albicans panel", "outline": "as §3"}, "C. albicans 3990": {"system": "C. albicans 3990", "assay": "Candida albicans panel MIC", "type": "cell-based", "conditions": "Table 6, Candida albicans panel", "outline": "as §3"}, "C. albicans 8112": {"system": "C. albicans 8112", "assay": "Candida albicans panel MIC", "type": "cell-based", "conditions": "Table 6, Candida albicans panel", "outline": "as §3"}, "[1]": {"system": "Aspergillus carbonarius ATCC 8740", "assay": "Aspergillus panel MIC", "type": "cell-based", "conditions": "Table 8", "method": "(§4) Starter cultures of fungal strains to be tested were grown in 3 mL of RPMI 2% glucose media incubated at 37° C. with shaking at 200 rpm overnight. The culture media used was 900 mL H2O; 10.4 g RPMI 1640 (with L-glutamine and a pH indicator but without bicarbonate); 34.5 g MOPS and 18 g glucose. The pH of the media was adjusted to 7.0 with 1 M sodium hydroxide.\n(§5) Solutions of the compound to be tested were prepared by dissolving the compound in DMSO and subsequently into media to the desired concentrations. 200 μL of compound solution was then added to the wells of the 96-well plate using a serial dilution method row-by row of the plate to give a compound concentration gradient across the plate of from 128 μg/mL to 0.25 μg/mL. The last two rows of each plate were control rows containing the culture media alone and the media plus fungi.\n(§6) The fungi starter cultures were diluted 1:10 in water in cuvettes. This was then further diluted to an optical density (OD600) of 0.01 in media. 100 μL of the fungi was added to each well giving a starting concentration of fungus of 0.5-5×10^5/mL. One species of fungus was used on each plate. The plates were then held at 37° C. for 24 hours.\n(§7) A plate reader was used to measure growth in each well at OD530 nm and the MIC was determined for each test compound. The MIC is defined as the lowest concentration giving rise to inhibition of ≥50% of that of the drug-free control well containing the fungus and media.\n(§8) The compound of Example 2 (which corresponds to compound number 2) was tested against a panel of Aspergillus strains using a method analogous to that described above for the Candida Panel."}, "[2]": {"system": "Aspergillus fulavus ATCC 204304", "assay": "Aspergillus panel MIC", "type": "cell-based", "conditions": "Table 8", "method": "as §4, §5, §6, §7, §8"}, "[3]": {"system": "Aspergillus fumigatus ATCC 1028", "assay": "Aspergillus panel MIC", "type": "cell-based", "conditions": "Table 8", "method": "as §4, §5, §6, §7, §8"}, "[4]": {"system": "Aspergillus fumigatus ATCC 10894", "assay": "Aspergillus panel MIC", "type": "cell-based", "conditions": "Table 8", "method": "as §4, §5, §6, §7, §8"}, "[5]": {"system": "Aspergillus fumigatus ATCC 13073", "assay": "Aspergillus panel MIC", "type": "cell-based", "conditions": "Table 8", "method": "as §4, §5, §6, §7, §8"}, "[6]": {"system": "Aspergillus fumigatus ATCC 16424", "assay": "Aspergillus panel MIC", "type": "cell-based", "conditions": "Table 8", "method": "as §4, §5, §6, §7, §8"}, "[7]": {"system": "Aspergillus fumigatus ATCC 204305", "assay": "Aspergillus panel MIC", "type": "cell-based", "conditions": "Table 8", "method": "as §4, §5, §6, §7, §8"}, "C. auris strain TDG1912": {"system": "C. auris strain TDG1912", "assay": "Galleria mellonella infection model, larval survival", "type": "in vivo", "conditions": "G. mellonella infected with C. auris TDG1912; survival over 120 hours", "method": "The effects of test compounds in-vivo was assessed using a Galleria mellonella infection model.\nG. mellonella were injected in a proleg with 10 μL of C. auris strain TDG1912 (OD4) at a concentration of 1×10^6 cfu/10 μL using a Hamilton syringe and left for 30 minutes to recover from injection and to allow infection to begin. The G. mellonella were then injected with 10 μL of the compound of the invention at either 50 mg/kg (10% DMSO) or 20 mg/kg (4% DMSO) or PBS containing 10% DMSO as an infection-only control. 10 larvae were selected for each treatment, and the experiment was repeated 3 times for the test compound and fluconazole. Survival of larvae was monitored for a 5 day period and results are presented as % survival over 120 hours (see FIG. 1)."}, "[8]": {"system": "C. auris (e.g. TDG1912, TDG2506 or 8984)", "assay": "microbe, parasite or virus in culture", "type": "cell-based, Candida auris", "conditions": "Candidozyma auris; efflux pump table; read-out: MIC Fluconazole, C. auris (e.g. TDG1912, TDG2506 or 8984)"}},
  "note": "Read-outs that look alike come from different tables or passages of the source.",
  "data": [
    {"smiles": "OC(Cn1cncn1)(Cn1cncn1)c1ccc(F)cc1F", "note": "[Fluconazole, fluconazole, reference compound]", "values": [
      {"measurement": "MIC", "setting": "C. albicans NCPF3281; Candida albicans, NCPF3281, read-out: MIC Fluconazole, C. albicans 3281", "result": "> 128", "unit": "µg/mL"},
      {"measurement": "MIC", "setting": "C. albicans NCPF3281; Candida albicans, NCPF3281, Table 4, common panel, 24 hours, ≥50% inhibition, read-out: MIC C. albicans NCPF3281", "result": "≤ 0.125", "unit": "µg/mL"},
      {"measurement": "MIC", "setting": "C. albicans NCPF3281; NCPF3281, Table 6, Candida albicans panel, read-out: MIC C. albicans NCPF3281", "result": "≤ 0.125", "unit": "µg/mL"},
      {"measurement": "MIC", "setting": "C. krusei NCPF3876; NCPF3876, read-out: MIC C. Krusei NCPF3876", "result": "0.5 to 8", "unit": "µg/mL"},
      {"measurement": "MIC", "setting": "C. krusei NCPF3876; NCPF3876, read-out: MIC Fluconazole, C. krusei 3876", "result": 32, "unit": "µg/mL"},
      {"measurement": "MIC", "setting": "C. krusei NCPF3876; NCPF3876, Table 4, common panel, 24 hours, ≥50% inhibition, read-out: MIC C. krusei NCPF3876", "result": "0.5 to 8", "unit": "µg/mL"},
      {"measurement": "MIC", "setting": "C. parapsilosis NCPF3209; NCPF3209, read-out: MIC C. Parapsilosis NCPF3209", "result": "≤ 0.25", "unit": "µg/mL"},
      {"measurement": "MIC", "setting": "C. parapsilosis NCPF3209; NCPF3209, read-out: MIC Fluconazole, C. parapsilosis 3209", "result": 0.5, "unit": "µg/mL"},
      {"measurement": "MIC", "setting": "C. parapsilosis NCPF3209; NCPF3209, Table 4, common panel, 24 hours, ≥50% inhibition, read-out: MIC C. parapsilosis NCPF3209", "result": "≤ 0.25", "unit": "µg/mL"},
      {"measurement": "MIC", "setting": "Candida auris TDG2211; TDG2211, read-out: MIC C. auris 2211", "result": "16 to 128", "unit": "µg/mL"},
      {"measurement": "MIC", "setting": "Candida auris TDG2211; TDG2211, Table 4, extended panel, 24 hours, ≥50% inhibition, read-out: MIC Candida auris TDG2211", "result": 64, "unit": "µg/mL"},
      {"measurement": "MIC", "setting": "Candida auris TDG2506; TDG2506, read-out: MIC C. auris 2506", "result": "> 128", "unit": "µg/mL"},
      {"measurement": "MIC", "setting": "Candida auris TDG2506; TDG2506, Table 4, extended panel, 24 hours, ≥50% inhibition, read-out: MIC Candida auris TDG2506", "result": "> 128", "unit": "µg/mL"},
      {"measurement": "MIC", "setting": "C. albicans 3363", "result": 8, "unit": "µg/mL"},
      {"measurement": "MIC", "setting": "C. albicans 3645", "result": "≤ 0.125", "unit": "µg/mL"},
      {"measurement": "MIC", "setting": "C. albicans 3880", "result": 16, "unit": "µg/mL"},
      {"measurement": "MIC", "setting": "C. albicans 3881", "result": 8, "unit": "µg/mL"},
      {"measurement": "MIC", "setting": "C. albicans 3882", "result": 16, "unit": "µg/mL"},
      {"measurement": "MIC", "setting": "C. albicans 3990", "result": 8, "unit": "µg/mL"},
      {"measurement": "MIC", "setting": "C. albicans 8112", "result": 0.125, "unit": "µg/mL"},
      {"measurement": "Minimum inhibitory concentration Aspergillus carbonarius ATCC 8740", "setting": "[1]", "result": ">64"},
      {"measurement": "Minimum inhibitory concentration Aspergillus fulavus ATCC 204304", "setting": "[2]", "result": ">64"},
      {"measurement": "Minimum inhibitory concentration Aspergillus fumigatus ATCC 1028", "setting": "[3]", "result": ">64"},
      {"measurement": "Minimum inhibitory concentration Aspergillus fumigatus ATCC 10894", "setting": "[4]", "result": ">64"},
      {"measurement": "Minimum inhibitory concentration Aspergillus fumigatus ATCC 13073", "setting": "[5]", "result": ">64"},
      {"measurement": "Minimum inhibitory concentration Aspergillus fumigatus ATCC 16424", "setting": "[6]", "result": ">64"},
      {"measurement": "Minimum inhibitory concentration Aspergillus fumigatus ATCC 204305", "setting": "[7]", "result": ">64"},
      {"measurement": "Protection against multi-drug resistant C. auris (larval survival)", "setting": "C. auris strain TDG1912", "result": "no significant effect"},
      {"measurement": "MIC", "setting": "[8]", "result": "> 128", "unit": "µg/mL"}
    ]}
  ]
}
